In brackets after ≈: the same amount, converted by molar mass.
Tests used:
human serum albumin = human serum albumin (Homo sapiens, UniProt P02768); test: binding constant to human serum albumin (TRANSIL technology)
Source text: The effective molecular weight (MW) is obtained simply from the respective empirical formula of the substance. The waters solubilities and the typical administered dosages of these commercially available products are furthermore known from the literature.
The ADME maps in FIGS. 5 to 10 show by way of example a selection of commercially available pharmaceutical substances. The substance names and the associated experimental measurement values for their physicochemical properties are summarised in Table 1.

[1] = membrane affinity as a measure of the lipophilicity (TRANSIL technology); format: physicochemical
[2] = water solubility, from the literature; cited from earlier work
[3] = cited from earlier work
[4] = cited from earlier work; remark: listed apart in the source
[5] = in vivo; cited from earlier work
[6] = log binding constant to human serum albumin, TRANSIL

human serum albumin, sequence (P02768 25-609): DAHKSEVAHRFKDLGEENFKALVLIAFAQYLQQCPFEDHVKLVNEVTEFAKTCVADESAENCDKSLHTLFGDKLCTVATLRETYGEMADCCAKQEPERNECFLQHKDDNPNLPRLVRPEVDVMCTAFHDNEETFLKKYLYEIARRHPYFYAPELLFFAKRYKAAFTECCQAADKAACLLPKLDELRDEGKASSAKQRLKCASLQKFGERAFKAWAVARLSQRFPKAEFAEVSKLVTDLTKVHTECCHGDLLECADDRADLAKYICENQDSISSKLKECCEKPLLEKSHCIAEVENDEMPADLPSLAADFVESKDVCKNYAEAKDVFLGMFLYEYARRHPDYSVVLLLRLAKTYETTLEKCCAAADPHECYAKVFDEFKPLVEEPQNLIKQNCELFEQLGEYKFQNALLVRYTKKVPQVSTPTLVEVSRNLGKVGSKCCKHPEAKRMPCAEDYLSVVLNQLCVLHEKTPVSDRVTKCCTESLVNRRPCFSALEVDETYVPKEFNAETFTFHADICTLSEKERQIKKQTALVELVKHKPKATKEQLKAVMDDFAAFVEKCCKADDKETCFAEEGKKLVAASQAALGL

Compound	LogMA [1]	Solubility [2] [µg/mL]	pKa [3]	logP [4]	also measured
COc1cccc2c1C(=O)c1c(O)c3c(c(O)c1C2=O)C[C@@](O)(C(=O)CO)C[C@@H]3O[C@H]1C[C@H](N)[C@H](O)[C@H](C)O1 [Doxorubicin]	2.322	93 (≈ 171 µM)	–	–	LogHSA (human serum albumin; [6]): −1.886
CCC(C)n1c(=O)[nH]c(C)c(Br)c1=O (stereo not drawn) [bromacil]	–	–	9.27	1.88	–
itraconazoles	–	–	–	–	passive oral absorption [5]: can be passively absorbed well
COc1nc(C)nc(NC(=O)NS(=O)(=O)c2ccccc2OCCCl)n1 [triasulfuron]	–	–	4.64	1.6	–
CC(CCc1ccccc1)NCC(O)c1ccc(O)c(C(N)=O)c1 (stereo not drawn) [Labetalol]	3.620	73 (≈ 222 µM)	–	–	–
COC(=O)c1cc(Oc2ccc(Cl)cc2Cl)ccc1[N+](=O)[O-] [bifenox]	–	–	13.8	4.5	–
CN1C(C(=O)Nc2ccccn2)=C(O)c2ccccc2S1(=O)=O [Piroxicam]	2.079	521 (≈ 1570 µM)	–	–	LogHSA (human serum albumin; human): −5.301
CN(C)CCCN1c2ccccc2CCc2ccccc21 [Imipramine]	3.190	1 (≈ 3.57 µM)	–	–	LogHSA (human serum albumin; human): −3.301
CC1(C)S[C@@H]2[C@H](NC(=O)Cc3ccccc3)C(=O)N2[C@H]1C(=O)O [Penicilin G]	1.041	50 (≈ 150 µM)	–	–	LogHSA (human serum albumin; [6]): −4.301
CC(C)(O/N=C(\C(=O)N[C@@H]1C(=O)N2C(C(=O)[O-])=C(C[n+]3ccccc3)CS[C@H]12)c1csc(N)n1)C(=O)O [Ceftazidime]	1.000	>500	–	–	LogHSA (human serum albumin; human): −2.495
COc1nc(C)nc(=NC(=O)NS(=O)(=O)c2ccccc2C(=O)O)[nH]1 [metsulfuron]	–	–	3.3	2	–
OC(Cn1cncn1)(Cn1cncn1)c1ccc(F)cc1F [Fluconazole]	–	1086 (≈ 3550 µM)	–	–	–
COc1cc(Cl)nc(NC(=O)NS(=O)(=O)c2ccccc2C(=O)O)n1 [chlorimuron]	–	–	4.2	0.11	–
CC(C)(C)NC[C@H](O)COc1nsnc1N1CCOCC1 [Timolol]	1.477	2741 (≈ 8660 µM)	–	–	LogHSA (human serum albumin; human): −2.000
C[C@]12CC[C@H]3[C@@H](CCC4=CC(=O)CC[C@@]43C)[C@@H]1CC[C@@H]2O [Testosteron]	2.826	68 (≈ 236 µM)	–	–	LogHSA (human serum albumin; [6]): −4.912
CCOC(=O)C1=C(C)NC(C)=C(C(=O)OC)C1c1cccc([N+](=O)[O-])c1 (stereo not drawn) [Nitrendipine]	–	77 (≈ 214 µM)	–	–	LogHSA (human serum albumin; human): −4.824
CO/N=C(\C(=O)N[C@@H]1C(=O)N2C(C(=O)O)=C(COC(N)=O)CS[C@H]12)c1ccco1 [Cefuroxime]	0.477	145 (≈ 342 µM)	–	–	LogHSA (human serum albumin; human): −2.553
CN(C)C(=O)Nc1ccc(Cl)c(Cl)c1 [diuron]	–	–	13.8	2.85	–
COC(=O)C1=C(C)NC(C)=C(C(=O)OC(C)C)C1c1cccc2nonc12 (stereo not drawn) [Isradipin]	3.699	49 (≈ 132 µM)	–	–	LogHSA (human serum albumin; [6]): −4.301
CCOC(=O)c1ccccc1S(=O)(=O)NC(=O)Nc1nc(Cl)cc(OC)n1 [chlorimuron-ethyl]	–	–	4.2	2.7	–
COc1cc(OC)nc(NC(=O)NS(=O)(=O)Cc2ccccc2C(=O)O)n1 [bensulfuron]	–	–	5.2	0.62	–

Compound	LogMA [1]	Solubility [2] [µg/mL]	pKa [3]	logP [4]	also measured
CCN(CC)CCNC(=O)c1ccc(NC(C)=O)cc1 [N-Acetylprocainamide]	1.176	>1000	–	–	LogHSA (human serum albumin; [6]): −2.268
CCCC(CCC)C(=O)O [Valproic acid]	1.041	895 (≈ 6210 µM)	–	–	LogHSA (human serum albumin; human): −3.921
Cc1cc(C)nc(NC(=O)NS(=O)(=O)c2ccccc2C(=O)O)n1 [sulfometuron]	–	–	5.2	−0.51	–
COc1cc(OC)nc(NC(=O)NS(=O)(=O)N(C)S(C)(=O)=O)n1 [amidosulfuron]	–	–	3.58	1.63	–
O=C(O)c1c(Cl)ccc2cc(Cl)cnc12 [quinclorac]	–	–	4.34	3.6	–
Cn1c(=O)c2[nH]cnc2n(C)c1=O [Theophiline]	0.886	2800 (≈ 15500 µM)	–	–	–
COc1nc(C)nc(N(C)C(=O)NS(=O)(=O)c2ccccc2C(=O)O)n1 [tribenuron]	–	–	5	−0.44	–
CC(C)(C)NCC(O)COc1cccc2c1CC(O)C(O)C2 (stereo not drawn) [Nadolol]	0.602	22400 (≈ 72400 µM)	–	–	–
O=C1NC(=O)C(c2ccccc2)(c2ccccc2)N1 [Phenytoin]	2.778	1267 (≈ 5020 µM)	–	–	LogHSA (human serum albumin; human): −3.639
Oxacepam	2.342	179	–	–	LogHSA (human serum albumin; [6]): −4.000
NC(=O)N1C(=O)/C(=C(\O)c2cccs2)c2cc(Cl)ccc21 [Tenidap]	–	2676 (≈ 8340 µM)	–	–	–
Cc1cc(Cl)ccc1OCC(=O)O [MCPA]	–	–	3.07	2.75	–
COC(=O)c1ccc(C(F)(F)F)nc1S(=O)(=O)NC(=O)Nc1nc(OC)cc(OC)n1 [flupyrsulfuron-methyl-sodium]	–	–	4.9	1.3	–
Clomipramin	4.104	0.294	–	–	LogHSA (human serum albumin; [6]): −2.796
CCCCNC(=O)NS(=O)(=O)c1ccc(C)cc1 [Tolbutamid]	–	109 (≈ 403 µM)	–	–	–
C[C@@H]1C[C@H]2[C@@H]3CCC4=CC(=O)C=C[C@]4(C)[C@@]3(F)[C@@H](O)C[C@]2(C)[C@@]1(O)C(=O)CO [Dexamethasone]	–	93 (≈ 237 µM)	–	–	–
N=C(N)N/N=C/c1c(Cl)cccc1Cl [Guanabenz]	0.602	1055 (≈ 4570 µM)	–	–	LogHSA (human serum albumin; human): −3.745
Cc1nccn1CC1CCc2c(c3ccccc3n2C)C1=O (stereo not drawn) [Ondansetron]	2.672	5.7 (≈ 19.4 µM)	–	–	LogHSA (human serum albumin; human): −3.237
CCCN(CCC)S(=O)(=O)c1ccc(C(=O)O)cc1 [Probenecid]	1.322	27.1 (≈ 95 µM)	–	–	LogHSA (human serum albumin; human): −4.004
O=C(Nc1nc(OC(F)F)cc(OC(F)F)n1)NS(=O)(=O)c1ccccc1C(=O)O [primisulfuron]	–	–	3.47	0.06	–
COC(=O)C1=C(C)NC(C)=C(C(=O)OCC(C)C)C1c1ccccc1[N+](=O)[O-] (stereo not drawn) [Nisoldipine]	–	25 (≈ 64.4 µM)	–	–	LogHSA (human serum albumin; human): −5.319

Compound	LogMA [1]	Solubility [2] [µg/mL]	pKa [3]	logP [4]	also measured
COC(=O)c1c(Cl)nn(C)c1S(=O)(=O)NC(=O)Nc1nc(OC)cc(OC)n1 [halosulfuron-methyl]	–	–	3.44	2.9	–
COc1nc(C)nc(NC(=O)NS(=O)(=O)c2ccsc2C(=O)O)n1 [thifensulfuron]	–	–	4	0.02	–
COc1cc(OC)nc(NC(=O)NS(=O)(=O)c2ncccc2C(=O)N(C)C)n1 [nicosulfuron]	–	–	4.6	0.5	–
CC(C)NCC(O)COc1cccc2ccccc12 (stereo not drawn) [Propranolol]	3.146	609 (≈ 2350 µM)	–	–	LogHSA (human serum albumin; human): −4.028
CCn1cc(C(=O)O)c(=O)c2cc(F)c(N3CCNCC3)nc21 [Enoxacin]	0.954	34300 (≈ 107000 µM)	–	–	LogHSA (human serum albumin; human): −2.278
CN1C(=O)CN=C(c2ccccc2F)c2cc([N+](=O)[O-])ccc21 [Flunitrazepam]	2.477	72.8 (≈ 232 µM)	–	–	–
CC(Oc1ccc(Oc2ccc(Cl)cc2Cl)cc1)C(=O)O (stereo not drawn) [diclofop]	–	–	3.43	4.5	–
CC(C)(C)NCC(O)c1cc(O)cc(O)c1 (stereo not drawn) [Terbutaline]	0.845	212800 (≈ 945000 µM)	–	–	LogHSA (human serum albumin; human): −2.398
COC(=O)c1ccccc1S(=O)(=O)NC(=O)Nc1nc(C)cc(C)n1 [sulfometuron-methyl]	–	–	5.2	1.4	–
CO/N=C(\C(=O)N[C@@H]1C(=O)N2C(C(=O)O)=C(CSc3nc(=O)c(=O)[nH]n3C)CS[C@H]12)c1csc(N)n1 [Ceftriaxone]	0.903	958 (≈ 1730 µM)	–	–	LogHSA (human serum albumin; human): −3.585
CC1(C)S[C@@H]2[C@H](NC(=O)[C@H](N)c3ccc(O)cc3)C(=O)N2[C@H]1C(=O)O [Amoxicilin]	0.778	–	–	–	LogHSA (human serum albumin; [6]): −2.301
C[C@@H](Oc1ccc(Cl)cc1Cl)C(=O)O [dichlorprop-P]	–	–	3.67	–	–
CN(Cc1cnc2nc(N)nc(N)c2n1)c1ccc(C(=O)N[C@@H](CCC(=O)O)C(=O)O)cc1 [Metotrexate]	1.176	26000 (≈ 57200 µM)	–	–	LogHSA (human serum albumin; [6]): −3.796
C=CCc1ccccc1OCC(O)CNC(C)C (stereo not drawn) [Alprenolol]	2.699	547 (≈ 2190 µM)	–	–	–
O=C(O)COc1ccc(Cl)cc1Cl [2,4-D]	–	–	2.73	2.58	–
CNCCCN1c2ccccc2CCc2ccccc21 [Despiramine]	–	0.99 (≈ 3.72 µM)	–	–	LogHSA (human serum albumin; [6]): −3.398
C[C@]12C[C@H](O)[C@H]3[C@@H](CCC4=CC(=O)CC[C@@]43C)[C@@H]1CC[C@@H]2C(=O)CO [Corticosterone]	2.531	143 (≈ 413 µM)	–	–	–
CON(C)C(=O)Nc1ccc(Cl)cc1 [monolinuron]	–	–	13.8	2.2	–
COc1cc2nc(N3CCN(C(=O)C4CCCO4)CC3)nc(N)c2cc1OC (stereo not drawn) [Terazosin]	1.785	205 (≈ 529 µM)	–	–	–
